Data on 18 compounds can be found in ChEMBL document CHEMBL5150041, “Discovery of novel N-(1-benzyl-1H-imidazol-2-yl)amide derivatives as melanocortin 1 receptor agonists” (Bioorg Med Chem Lett, 2022).

For data set [1], the target named is T1, Melanocyte-stimulating hormone receptor (Homo sapiens, UniProt Q01726). The experiment in a line: Agonist activity at human MC1R assessed as increase in alpha-MSH induced cAMP level. The class given is functional.
Target sequence in this assay (Q01726 whole entry): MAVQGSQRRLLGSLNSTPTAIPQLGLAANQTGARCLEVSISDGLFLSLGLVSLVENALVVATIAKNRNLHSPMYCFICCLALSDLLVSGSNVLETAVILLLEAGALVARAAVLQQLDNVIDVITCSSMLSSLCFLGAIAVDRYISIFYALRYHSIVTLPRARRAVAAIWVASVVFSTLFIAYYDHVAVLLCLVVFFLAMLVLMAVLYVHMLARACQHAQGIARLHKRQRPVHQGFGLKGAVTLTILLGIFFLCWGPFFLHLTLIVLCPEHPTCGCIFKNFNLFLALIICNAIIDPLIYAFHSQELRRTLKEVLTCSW
The target of data set [2] is T1, Melanocyte-stimulating hormone receptor. The data set can be described thus: Agonist activity at human MC1R assessed as increase in alpha-MSH induced cAMP level at 10 uM relative to control. Format: functional.
Target sequence in this assay (Q01726 whole entry, looked up): as the sequence (Q01726 whole entry) above
Data set [3] shares this target. The data set can be described thus: Intrinsic agonist activity at human MC1R assessed as increase in alpha-MSH induced cAMP level by measuring maximum response relative to control. The class given is functional. As to conditions: filed as agonist.
Target sequence in this assay (Q01726 whole entry, looked up): as the sequence (Q01726 whole entry) above
Data set [4] can be described thus: Metabolic stability in human assessed as intrinsic clearance measured per mg protein. The class given is ADME.

Take `CC(C)(C)N1C[C@@H](C(=O)Nc2nc3ccccc3n2-c2ccccc2)[C@H](c2ccc(F)cc2F)C1`: in data set [1], the EC50 is over 10000 nM. For the same compound, the Activity in data set [2] stood at 7%.
Take `CC(C)(C)N1C[C@@H](C(=O)Nc2nccn2Cc2cccc(Cl)c2)[C@H](c2ccc(F)cc2F)C1`: in data set [3], the Intrinsic activity is 50%. The EC50 in data set [1] was 1270 nM.
In the case of `CC(C)(C)N1C[C@@H](C(=O)Nc2nc3ccccc3n2CCc2ccccc2)[C@H](c2ccc(F)cc2F)C1`, in data set [1], the EC50 is over 10000 nM. In data set [2], the Activity was 7.5%.
As to `CC(C)(C)N1C[C@@H](C(=O)Nc2nccn2Cc2ccc(Cl)cc2)[C@H](c2ccc(F)cc2F)C1`, the EC50 in data set [1] was over 10000 nM. For the same compound, the Activity in data set [2] came to 18%.
In the case of `Cc1ccc(Cn2ccnc2NC(=O)[C@@H]2CN(C(C)(C)C)C[C@H]2c2ccc(F)cc2F)c(N2CCC(C(=O)O)CC2)c1`, the Intrinsic activity in data set [3] turned out to be 101%. The CL in data set [4] came out at 28 µL/min. In addition, in data set [1], the EC50 was determined as 318 nM.
Regarding `CC(C)(C)N1C[C@@H](C(=O)Nc2nccn2Cc2ccccc2N2CCC(CC(=O)O)CC2)[C@H](c2ccc(F)cc2F)C1`, the CL in data set [4] stood at 39 µL/min. Further, the EC50 in data set [1] was determined as 1980 nM. In addition, in data set [2] (filed as agonist), the Activity turned out to be 64%.
Regarding `CC(C)(C)N1C[C@@H](C(=O)Nc2ccccc2Cc2ccccc2)[C@H](c2ccc(F)cc2F)C1`, the EC50 in data set [1] was over 10000 nM. Also, the Activity in data set [2] amounted to 2.8%.
As to `CC(C)(C)N1C[C@@H](C(=O)Nc2nccn2Cc2ccccc2)[C@H](c2ccc(F)cc2F)C1`, in data set [3], the Intrinsic activity was 54%. Also, the EC50 in data set [1] is 4660 nM.
Consider `CC(C)(C)N1C[C@@H](C(=O)Nc2nccn2Cc2ccccc2N2CCOCC2)[C@H](c2ccc(F)cc2F)C1.Cl`, for which, in data set [3], the Intrinsic activity amounted to 86%. For the same compound, the CL in data set [4] stood at 660 µL/min. In addition, the EC50 in data set [1] came out at 219 nM.
On the same counts, the results for `CC(C)(C)N1C[C@@H](C(=O)Nc2nccn2Cc2ccccc2N2CCC(C(N)=O)CC2)[C@H](c2ccc(F)cc2F)C1.Cl` are 80%, 450 µL/min and 386 nM.
Turning to `CC(C)(C)N1C[C@@H](C(=O)Nc2nccn2Cc2ccccc2Cl)[C@H](c2ccc(F)cc2F)C1`, the Intrinsic activity in data set [3] came to 65%. Besides, the EC50 in data set [1] was 1270 nM.
For `CC(C)(C)N1C[C@@H](C(=O)Nc2ncnn2Cc2ccccc2)[C@H](c2ccc(F)cc2F)C1`, the EC50 in data set [1] was over 10000 nM. The Activity in data set [2] amounted to 3.7%.
For `CC(C)(C)N1C[C@@H](C(=O)Nc2nccn2Cc2ccccc2N2CCC(C(=O)O)CC2)[C@H](c2ccc(F)cc2F)C1`, the Intrinsic activity in data set [3] was found to be 104%. Also, the CL in data set [4] is under 10 µL/min. For the same compound, the EC50 in data set [1] was found to be 460 nM.
On the same counts, the results for `CC(C)(C)N1C[C@@H](C(=O)Nc2nccn2Cc2ccc(C(F)(F)F)cc2N2CCC(C(=O)O)CC2)[C@H](c2ccc(F)cc2F)C1` are 158%, 25 µL/min and 77 nM.
As for `CC(C)(C)N1C[C@@H](C(=O)Nc2nccn2Cc2ccccc2N2CCCCC2)[C@H](c2ccc(F)cc2F)C1.Cl`, the Intrinsic activity in data set [3] worked out at 77%. The CL in data set [4] stood at 610 µL/min. Moreover, the EC50 in data set [1] was determined as 339 nM.
On the same counts, the results for `CC(C)(C)N1C[C@@H](C(=O)Nc2nccn2Cc2ccccc2-c2ccccc2)[C@H](c2ccc(F)cc2F)C1` are 79%, 860 µL/min and 527 nM.
Regarding `CC(C)(C)N1C[C@@H](C(=O)Nc2nc3ccccc3n2Cc2ccccc2)[C@H](c2ccc(F)cc2F)C1`, in data set [2] (filed as agonist), the Activity came out at 53%.
In the case of `Cn1c(NC(=O)[C@@H]2CN(C(C)(C)C)C[C@H]2c2ccc(F)cc2F)nc2ccccc21`, the EC50 in data set [1] was over 10000 nM. In addition, the Activity in data set [2] came out at 2.5%.
